Test results: patent publication US10570177B2, “P3 peptidylic inhibitors for treating CAG-repeat RNA toxicity in polyglutamine diseases” (The Chinese University of Hong Kong, priority 2017, dated 2020)
Where “and” joins values, the source holds several entries; their conditions need not be identical. Equal entries are not always repeated. Entries after “also recorded” stand apart in the source; their conditions may differ. Starred links: 1 amine or outer side, 2 acyl side, 3 side chain; linkers in the order of their positions; H or OH if unused. Non-standard residues stand in square brackets, D forms with d. No end group written: not given here. gPNA = guanine base linked to N-(2-aminoethyl)-glycine backbone, Nc1nc2c(ncn2CC(=O)N(CCN[*:1])CC(=O)[*:2])c(=O)[nH]1; tPNA = thymine base linked to N-(2-aminoethyl)-glycine backbone, Cc1cn(CC(=O)N(CCN[*:1])CC(=O)[*:2])c(=O)[nH]c1=O; cPNA = cytosine base linked to N-(2-aminoethyl)-glycine backbone, Nc1ccn(CC(=O)N(CCN[*:1])CC(=O)[*:2])c(=O)n1; aPNA = adenine base linked to N-(2-aminoethyl)-glycine backbone, Nc1ncnc2c1ncn2CC(=O)N(CCN[*:1])CC(=O)[*:2]; hArg = N=C(N)NCCCC[C@H](N)C(=O)O; Orn = NCCC[C@H](N)C(=O)O; Dap = NC[C@H](N)C(=O)O; ∗∗ = not defined here

How the values were obtained:
MJDCAG78 RNA = assay: Isothermal titration calorimetry binding assay, expanded MJDCAG78 RNA; details: for KD / Kd: ITC at 25° C., 0.7 mM peptide titrated into 0.5 μM MJDCAG78 RNA, one binding site model, mean ± S.E.M.; for improvement of binding affinity to expanded CAG RNA over P3: relative to P3
Description: Experiments were carried out using a MicroCal iTC200 isothermal titration calorimeter (GE Healthcare) at 25° C. Data were analyzed using the Origin® scientific plotting software version 7 (Microcal Software Inc.). All RNAs and peptides were dissolved in binding buffer (20 mM MOPS, pH 7.0; 300 mM NaCl) and 0.7 mM of peptide was titrated into 0.5 μM of RNA for each experiment. The concentration of RNA was estimated with appropriate extinction coefficients at 260 nm on a Nanodrop 2000 (Thermo Scientific). A reference power of 8 μcal/s was used with an initial 0.5 μl of injection of peptide followed by 2 μl for all subsequent titrations points with a 60 sec initial equilibrium delay and 150 sec pause between injections. The samples were stirred at a speed of 1000 rpm throughout the experiment. The thermal titration data were fitted to the ‘one binding site model’ to determine the dissociation constant (KD). Each experiment was repeated at least 3 times with consistent results obtained.

DsRedCAG100 flies = assay: Pseudopupil assay in DsRedCAG100 Drosophila (expanded CAG RNA neurodegeneration); assay type: in vivo
From the text: Here the DsRedCAG0/100Drosophila model was utilized to investigate the suppressive effects of the P3 analogs on RNA toxicity. In this model, the CAG repeat is located in the 3′ untranslated region of the DsRed reporter gene-=. The transcribed expanded CAG RNA is not translated into polyQ protein, and thus the toxicity is solely attributed to the expression of DsRedCAG100 RNA. In brief, the expression of expanded CAG RNA causes severe retinal degeneration in the animal that can be quantified by a pseudopupil assay^7. Inhibitors that can suppress neurotoxicity will result in the recovery of the number of rhabdomeres within the ommatidium. To test the derivatives, third instar larvae were fed different amounts of peptide dissolved in sucrose solution for 2 hr and then allowed to culture in standard fly food until the flies were 12 days old, at which time they were sacrificed for the pseudopupil assay.
Flies were raised at 21.5° C. on cornmeal medium supplemented with dry yeast. Fly lines bearing UAS-DsRedCAG0 and UAS-DsRedCAG100 were kind gifts of Professor Nancy Bonini (University of Pennsylvania, USA). The gmr-GAL4 fly line was obtained from Bloomington Drosophila Stock Center. For pseudopupil assay, third instar larvae were fed with various amount of respective peptides dissolved in 2% sucrose solution for 2 hr and then continued to culture in standard fly food at 21.5° C.^38. Pseudopupil assay was performed on 12 day-old adult flies as mentioned previously^39. Images were captured by SPOT Insight CCD camera controlled by the SPOT Advanced software (Diagnostic instruments Inc.). Image processing was performed using the Adobe Photoshop CS software (Adobe). Each experiment was repeated at least 3 times (n=10 fly heads), and consistent results were obtained. For viability test of wild-type flies from egg to adult stage, eggs born within 5 hr were collected and cultured in fly food containing 10 or 50 μM of respective peptides at 21.5° C. Viability from egg-to-adult was calculated as the number of adult flies collected divided by the number of eggs examined. Each experiment was repeated for three times (at least 130 eggs were examined in each group). Two batches of independently synthesized peptides were used in the experiments.

Row | Kd (MJDCAG78 RNA) | Substance | other results
1 | 11.2 ± 4.37 µM | H-cptPNA-**-Lys-Ser-Lys-Gly-Ile-Ala-Tyr-Ile-Glu-Phe-Lys-NH2 (H-XKSKGIAYIEFK-NH2; not fully specified (residue 1); printed as H-cptPNA-**-Lys-Ser-Lys-Gly-Ile-Ala-Tyr-Ile-Glu-Phe-Lys-NH2; also: N-terminal amino group replaced by hydrogen) [P3V27] | –
2 | 23 µM and 23.3 µM | DGRSRGIAYIEFR [P3V6] | –
3 | 2.2 µM and 2.24 µM | H-tPNA-Asp-Gly-Lys-Ser-Lys-Gly-Ile-Ala-Tyr-Ile-Glu-Phe-Lys-NH2 ([tPNA]DGKSKGIAYIEFK-NH2; also: N-terminal amino group replaced by hydrogen) [P3V10] | –
4 | 0.12 µM | H-tPNA-**-Lys-Ser-Lys-Gly-Ile-Ala-Tyr-Ile-Glu-Phe-Lys-NH2 (H-[tPNA]KSKGIAYIEFK-NH2; not fully specified (residue 1); printed as H-tPNA-**-Lys-Ser-Lys-Gly-Ile-Ala-Tyr-Ile-Glu-Phe-Lys-NH2; also: N-terminal amino group replaced by hydrogen) [P3V11] | –
5 | 0.96 µM | Hi-cPNA-**-Lys-Ser-Lys-Gly-Ile-Ala-Tyr-Ile-Glu-Phe-Lys-NH2 (H-[cPNA][∗∗]KSKGIAYIEFK-NH2; not fully specified; printed as Hi-cPNA-**-Lys-Ser-Lys-Gly-Ile-Ala-Tyr-Ile-Glu-Phe-Lys-NH2; reading uncertain; also: N-terminal amino group replaced by hydrogen) [P3V24] | –
6 | 16 µM and 16.6 µM | DGKSKGIAAIEFK [P3MT3] | –
7 | 100 µM and 101 µM | DGKSAGIAYIEFK [P3MT2] | –
8 | 1.74 ± 0.67 µM | DGKSKGIAYIEYK [P3V3] | improvement of binding affinity to expanded CAG RNA over P3 (MJDCAG78 RNA): ~2 fold
9 | 3.67 ± 0.26 µM | DGKSKGIAYIEFK [P3V7] | –

The remaining lines, values behind:

Row | Substance | Kd (MJDCAG78 RNA) | other results
10 | Ac-Asp-Gly-Lys-Ser-(Dap)-Gly-Ile-Ala-Tyr-Ile-Glu-Phe-Lys-NH2 (Ac-DGKS[Dap]GIAYIEFK-NH2; SMILES CC[C@H](C)[C@H](NC(=O)CNC(=O)[C@H](CN)NC(=O)[C@H](CO)NC(=O)[C@H](CCCCN)NC(=O)CNC(=O)[C@H](CC(=O)O)NC(C)=O)C(=O)N[C@@H](C)C(=O)N[C@@H](Cc1ccc(O)cc1)C(=O)N[C@H](C(=O)N[C@@H](CCC(=O)O)C(=O)N[C@@H](Cc1ccccc1)C(=O)N[C@@H](CCCCN)C(N)=O)[C@@H](C)CC) [P3V19] | – | KD (MJDCAG78 RNA): No binding
11 | DGKSKGIAYIEFKDGKSKGIAYIEFK [P3V20, linear dimer of P3V8] | – | KD (MJDCAG78 RNA): did not show any binding; also recorded: No binding
12 | DGKSKGIAYIEAK [P3MT4] | 17 µM and 17.4 µM | –
13 | Ac-Asp-Gly-(Orn)-Ser-Lys-Gly-Ile-Ala-Tyr-Ile-Glu-Phe-Lys-NH2 (Ac-DG[Orn]SKGIAYIEFK-NH2) [P3V16] | – | KD (MJDCAG78 RNA): No binding
14 | Ac-Asp-Gly-Lys-Ser-(hArg)-Gly-Ile-Ala-Tyr-Ile-Glu-Phe-Lys-NH2 (Ac-DGKS[hArg]GIAYIEFK-NH2; SMILES CC[C@H](C)[C@H](NC(=O)CNC(=O)[C@H](CCCCNC(=N)N)NC(=O)[C@H](CO)NC(=O)[C@H](CCCCN)NC(=O)CNC(=O)[C@H](CC(=O)O)NC(C)=O)C(=O)N[C@@H](C)C(=O)N[C@@H](Cc1ccc(O)cc1)C(=O)N[C@H](C(=O)N[C@@H](CCC(=O)O)C(=O)N[C@@H](Cc1ccccc1)C(=O)N[C@@H](CCCCN)C(N)=O)[C@@H](C)CC) [P3V15] | – | KD (MJDCAG78 RNA): No binding
15 | DGKSKGIAYIEFA [P3MT5] | 51 µM and 51.3 µM | –
16 | DGRSRGIAYIEFK [P3V9] | 2.34 ± 0.49 µM | –
17 | Ac-Asp-Gly-(Dap)-Ser-Lys-Gly-Ile-Ala-Tyr-Ile-Glu-Phe-Lys-NH2 (Ac-DG[Dap]SKGIAYIEFK-NH2; SMILES CC[C@H](C)[C@H](NC(=O)CNC(=O)[C@H](CCCCN)NC(=O)[C@H](CO)NC(=O)[C@H](CN)NC(=O)CNC(=O)[C@H](CC(=O)O)NC(C)=O)C(=O)N[C@@H](C)C(=O)N[C@@H](Cc1ccc(O)cc1)C(=O)N[C@H](C(=O)N[C@@H](CCC(=O)O)C(=O)N[C@@H](Cc1ccccc1)C(=O)N[C@@H](CCCCN)C(N)=O)[C@@H](C)CC) [P3V18] | – | KD (MJDCAG78 RNA): No binding
18 | DGASKGIAYIEFK [P3MT1] | 31.3 ± 8.29 µM | –
19 | H-Asp-Gly-Lys-Ser-Lys-Gly-Ile-Ala-Tyr-Ile-Glu-Phe-Lys-tPNA-cPNA-gPNA-NH2 (DGKSKGIAYIEFK[tPNA][cPNA][gPNA]-NH2; also: Asp N-terminal amino group replaced by hydrogen) [P3V23] | 233 ± 98.9 µM | –
20 | DGKSKGIAYIEFKGDGKSKGIAYIEFK [P3V21, linear dimer of P3V8] | – | KD (MJDCAG78 RNA): did not show any binding; also recorded: No binding
21 | H-aPNA-**-Lys-Ser-Lys-Gly-Ile-Ala-Tyr-Ile-Glu-Phe-Lys-NH2 (H-[aPNA]KSKGIAYIEFK-NH2; not fully specified (residue 1); printed as H-aPNA-**-Lys-Ser-Lys-Gly-Ile-Ala-Tyr-Ile-Glu-Phe-Lys-NH2; also: N-terminal amino group replaced by hydrogen) [P3V25] | 8.28 ± 2.27 µM | –
22 | H-cPNA-gPNA-tPNA-Asp-Gly-Lys-Ser-*-Gly-Ile-Ala-Tyr-Ile-Glu-Phe-Lys-NH2 (H-[cPNA][gPNA][tPNA]DGKSGIAYIEFK-NH2; not fully specified (residue 7); printed as H-cPNA-gPNA-tPNA-Asp-Gly-Lys-Ser-*-Gly-Ile-Ala-Tyr-Ile-Glu-Phe-Lys-NH2; also: N-terminal amino group replaced by hydrogen) [P3V13] | 10.8 ± 3.08 µM | –
23 | H-Asp-Gly-Lys-Ser-Lys-Gly-Ile-Ala-Tyr-Ile-Glu-Phe-Lys-tPNA-NH2 (DGKSKGIAYIEFK[tPNA]-NH2; also: Asp N-terminal amino group replaced by hydrogen) [P3V22] | – | KD (MJDCAG78 RNA): No binding
24 | Ac-Asp-Gly-(hArg)-Ser-Lys-Gly-Ile-Ala-Tyr-Ile-Glu-Phe-Lys-NH2 (Ac-DG[hArg]SKGIAYIEFK-NH2; SMILES CC[C@H](C)[C@H](NC(=O)CNC(=O)[C@H](CCCCN)NC(=O)[C@H](CO)NC(=O)[C@H](CCCCNC(=N)N)NC(=O)CNC(=O)[C@H](CC(=O)O)NC(C)=O)C(=O)N[C@@H](C)C(=O)N[C@@H](Cc1ccc(O)cc1)C(=O)N[C@H](C(=O)N[C@@H](CCC(=O)O)C(=O)N[C@@H](Cc1ccccc1)C(=O)N[C@@H](CCCCN)C(N)=O)[C@@H](C)CC) [P3V14] | – | KD (MJDCAG78 RNA): No binding
25 | H-Asp-Gly-Lys-Ser-Lys-Gly-Ile-tPNA-*-Ile-Glu-Phe-Lys-NH2 (H-DGKSKGI[tPNA]IEFK-NH2; not fully specified (residue 8); also: Asp N-terminal amino group replaced by hydrogen) [P3V12] | 9.93 ± 2.19 µM | –
26 | DGKSKGIAWIEFK [P3V2] | 2.2 µM and 2.21 µM | –
27 | Ac-Asp-Gly-Lys-Ser-(Orn)-Gly-Ile-Ala-Tyr-Ile-Glu-Phe-Lys-NH2 (Ac-DGKS[Orn]GIAYIEFK-NH2) [P3V17] | – | KD (MJDCAG78 RNA): No binding
28 | H-gPNA-**-Lys-Ser-Lys-Gly-Ile-Ala-Tyr-Ile-Glu-Phe-Lys-NH2 (H-[gPNA]KSKGIAYIEFK-NH2; not fully specified (residue 1); printed as H-gPNA-**-Lys-Ser-Lys-Gly-Ile-Ala-Tyr-Ile-Glu-Phe-Lys-NH2; also: N-terminal amino group replaced by hydrogen) [P3V26] | 8.85 ± 2.85 µM | –
29 | DGRSRGIAYIEFK [P3V5] | ~0.86 µM and 0.86 µM | improvement of binding affinity to expanded CAG RNA over P3 (MJDCAG78 RNA): ~10 fold; pseudopupil score (DsRedCAG100 flies; 1 μM treatment, 12 day-old flies): 3.64±0.22; suppression of neurotoxicity / retinal degeneration (DsRedCAG100 flies; DsRedCAG100 flies, in words): significantly suppressed neurotoxicity
30 | DGKSKGIAYIEWK [P3V4] | 4.44 ± 0.47 µM | improvement of binding affinity to expanded CAG RNA over P3 (MJDCAG78 RNA): ~4 fold
31 | Asp-(d-Ala)-Lys-Ser-Lys-Gly-Ile-Ala-Tyr-Ile-Glu-Phe-Lys (D[dA]KSKGIAYIEFK) [P3V1] | – | improvement of binding affinity to expanded CAG RNA over P3 (MJDCAG78 RNA): 4 fold
